Data published in US20150274777A1, “KETOAMIDE IMMUNOPROTEASOME INHIBITORS” (HOFFMANN-LA ROCHE INC., priority 2012, published 2015).

Assays:
β5i = target: T1, β5i (Homo sapiens, UniProt P20618+P28062); test: Cell-Based Proteasome Activity/Selectivity Assay (Ramos cells), substrate (ANW)2Rh110; settings: highest concentration tested 20 μM, read-out: Ic50 ramos:ac-(anw)2-r110
T1 construct: protease activity associated with the proteasome complex in cultured cells; endogenous in cells; host or cells: Ramos cells
Text: (§1) Cell-Based Proteasome Activity/Selectivity Assay
(§2) The Cell-Based Proteasome subunit activity/selectivity assay was a panel of 5 fluorogenic assays that independently measured the activity of β5c or β5i (chymotrypsin-like activity), β2c/2i (trypsin-like), and β1c or β1i (caspase-like) protease activity associated with the proteasome complex in cultured cells. Specifically, the following substrates were used for respective subunit activities: β1i: (PAL)2Rh110, β1c: (LLE)2 Rh110, β2c/2i: (KQL)2Rh110, β5c: (WLA)2Rh110, β5i: (ANW)2Rh110. The following procedure was followed:
(§3) Cell preparation: Plated 25 μl of Ramos cells (2×10^6/ml in DPBS) into half area plate (PerkinElmer Cat 6005569) to final 5×10^4 cells/well. Added 0.5 μl of 100×4-fold serial diluted test compounds or DMSO to each well. Highest concentration of compound tested was 20 μM, thus compound serial dilution started from […]. Incubated for 30 minutes at 37° C. Then equilibrated at room temperature for 15 minutes. Added 25 μl of 2× reaction mix consisting of 0.025% digitonin, 20 μM of each substrates and 0.5M sucrose in DPBS. Shaked for one minute @ 700 rpm. Incubated for 120 min at room temperature. Then read the plates with an Envision multilabel plate reader (PerkinElmer) with 500 nm excitation/519 nm emission.

β5c = target: T2, β5c (Homo sapiens, UniProt P20618+P28074); test: Cell-Based Proteasome Activity/Selectivity Assay (Ramos cells), substrate (WLA)2Rh110; settings: highest concentration tested 20 μM
T2 construct: protease activity associated with the proteasome complex in cultured cells; endogenous in cells; host or cells: Ramos cells
Text: as §1, §2, §3

β2c/2i = test: Cell-Based Proteasome Activity/Selectivity Assay (Ramos cells), substrate (KQL)2Rh110; settings: highest concentration tested 20 μM
Text: as §1, §2, §3

β1i = target: T3, β1i (Homo sapiens, UniProt P28065+P40306); test: Cell-Based Proteasome Activity/Selectivity Assay (Ramos cells), substrate (PAL)2Rh110; settings: highest concentration tested 20 μM
T3 construct: protease activity associated with the proteasome complex in cultured cells; endogenous in cells; host or cells: Ramos cells
Text: as §1, §2, §3

β1c = target: T4, β1c (Homo sapiens, UniProt P28072+Q99436); test: Cell-Based Proteasome Activity/Selectivity Assay (Ramos cells), substrate (LLE)2 Rh110; settings: highest concentration tested 20 μM
T4 construct: protease activity associated with the proteasome complex in cultured cells; endogenous in cells; host or cells: Ramos cells
Text: as §1, §2, §3

[1] = tested on: IP10 level in PBMCs stimulated with CpG Type A; test: PBMC IP-10 Assay; format: cell-based; settings: CpG Type A 2.5 μM
Procedure: PBMCs were isolated from whole blood as follows: Blood was collected in a sterile environment in heparinized tubes. Blood was diluted with an equal volume PBS/2% FCS and 30 ml of this mixture was added to ACCUSPIN tubes containing 15 ml Histopaque-1077 already centrifuged at 800 g for 30 seconds and warmed up at room temperature. The tubes were then centrifuged at 800 g for 20 minutes at room temperature with no brake. The mononuclear band, just above the polyethylene frit, was removed by Pasteur pipet. These mononuclear cells were washed three times with sterile PBS, counted, and resuspended in RPMI 1640 supplemented with 10% heat inactivated fetal calf serum, 10 mM HEPES, 1 mM sodium pyruvate, penicillin (50 U/ml), streptomycin (50 μg/ml) and glutamine (2 mM) to approximately 1.5×10^6/ml. Approximately 2×10^5 cells/well were plated in 96 well tissue culture plates (BD Falcon 353072), and preincubated 60 mi/37° C. with a titration of compounds, in a final concentration of 1% DMSO. Cells were then stimulated with CpG Type A (Invivogen, Cat #tlrl-2216; ODN 2216) at a final concentration of 2.5 μM. Cells were incubated overnight, and supernatants were removed. PBMC viability of cells remaining in the well was measured with ATPlite luminescence assay (Perkin-Elmer) per the manufacturer's instructions. Luminescence was measured on the Perkin-Elmer Envision, using the luminescence filter. IP10 level was measured with CXCL10/IP10 AlphaLISA kit (Perkin-Elmer) per the manufacturer's instructions, except halving all volumes. Fluorescence was measured on the Envision Multilabel plate reader, using the AlphaScreen standard settings.

IC50 (β5i)	IC50 (β5c)	IC50 (β2c/2i)	IC50 (β1i)	IC50 (β1c)	SMILES	EC50 [1]
0.394 µM	3.2 µM	> 20 µM	0.56 µM	> 20 µM	CCCC[C@H](NC(=O)[C@H](Cc1ccc(OC)cc1)NC(=O)[C@H](C)NC(=O)CN1CCOCC1)C(=O)C(=O)NCc1ccccc1 [Example 3, (S)-3-{(S)-3-(4-Methoxy-phenyl)-2-[(S)-2-(2-morpholin-4-yl-acetylamino)-propionylamino]-propionylamino}-2-oxo-heptanoic acid benzylamide]	7.96 µM
0.699 µM	16.5 µM	> 20 µM	0.426 µM	> 20 µM	CCCC[C@H](NC(=O)[C@H](Cc1ccc(OC)cc1)NC(=O)[C@H](C)NC(=O)CN1CCOCC1)C(=O)C(=O)NC [Example 14, (S)-3-{(S)-3-(4-Methoxy-phenyl)-2-[(S)-2-(2-morpholin-4-yl-acetylamino)-propionylamino]-propionylamino}-2-oxo-heptanoic acid methylamide]	5.17 µM
0.234 µM	4.44 µM	> 20 µM	1.08 µM	> 20 µM	CC(C)C[C@H](NC(=O)[C@H](C)NC(=O)c1ccnn1C)C(=O)N[C@@H](Cc1ccccc1)C(=O)C(=O)NCc1ccccc1 [Example 37, 2-Methyl-2H-pyrazole-3-carboxylic acid {(S)-1-[(S)-1-((S)-1-benzyl-2-benzylcarbamoyl-2-oxo-ethylcarbamoyl)-3-methyl-butylcarbamoyl]-ethyl}-amide]	5.1 µM
0.009 µM	0.846 µM	> 20 µM	> 20 µM	> 20 µM	COc1ccc(C[C@H](NC(=O)[C@H](C)NC(=O)C2=C(C)c3ccccc3C2)C(=O)N[C@@H](Cc2ccccc2)C(=O)C(=O)NCc2ccccc2)cc1 [Example 25, 3-Methyl-1H-indene-2-carboxylic acid {(S)-1-[(S)-1-((S)-1-benzyl-2-benzylcarbamoyl-2-oxo-ethylcarbamoyl)-2-(4-methoxy-phenyl)-ethylcarbamoyl]-ethyl}-amide]	1.07 µM
0.146 µM	0.45 µM	10.6 µM	0.91 µM	3.55 µM	CCCC[C@H](NC(=O)[C@H](CC(C)C)NC(=O)[C@@H](NC(=O)[C@H](Cc1ccccc1C)NC(C)=O)C(C)(C)C)C(=O)C(=O)NCc1ccccc1 [Example 1, (S)-3-{(S)-2-[(S)-2-((S)-2-Acetylamino-3-o-tolyl-propionylamino)-3,3-dimethyl-butyrylamino]-4-methyl-pentanoylamino}-2-oxo-heptanoic acid benzylamide]	2.05 µM
0.026 µM	0.385 µM	> 20 µM	0.697 µM	18.4 µM	COc1ccc(C[C@H](NC(=O)[C@H](C)NC(=O)CCc2ccnn2C)C(=O)N[C@@H](Cc2ccccc2)C(=O)C(=O)NCc2ccccc2)cc1 [Example 41, (S)—N-Benzyl-3-((S)-3-(4-methoxy-phenyl)-2-{(S)-2-[3-(2-methyl-2H-pyrazol-3-yl)-propionylamino-]propionylamino}-propionylamino)-2-oxo-4-phenyl-butyramide]	1.5 µM
0.066 µM	1.68 µM	> 20 µM	0.609 µM	18.5 µM	CCn1nccc1C(=O)N[C@@H](C)C(=O)N[C@@H](Cc1ccccc1)C(=O)N[C@@H](Cc1ccccc1)C(=O)C(=O)NCc1ccccc1 [Example 54, 2-Ethyl-2H-pyrazole-3-carboxylic acid {(S)-1-[(S)-1-((S)-1-benzyl-2-benzylcarbamoyl-2-oxo-ethylcarbamoyl)-2-phenyl-ethylcarbamoyl]-ethyl}-amide]	3.45 µM
0.029 µM	1.38 µM	> 20 µM	0.605 µM	> 20 µM	COc1ccc(C[C@H](NC(=O)[C@H](C)NS(=O)(=O)c2ccccc2)C(=O)N[C@@H](Cc2ccccc2)C(=O)C(=O)NCc2ccccc2)cc1 [Example 39, (S)-3-[(S)-2-((S)-2-Benzenesulfonylamino-propionylamino)-3-(4-methoxy-phenyl)-propionylamino]-N-benzyl-2-oxo-4-phenyl-butyramide]	2.32 µM
0.008 µM	1.01 µM	> 20 µM	1.17 µM	13.6 µM	CC1=C(C(=O)N[C@@H](C)C(=O)N[C@@H](Cc2c[nH]c3ccccc23)C(=O)N[C@@H](Cc2ccccc2)C(=O)C(=O)NCc2ccccc2)Cc2ccccc21 [Example 48, 3-Methyl-1H-indene-2-carboxylic acid {(S)-1-[(S)-1-((S)-1-benzyl-2-benzylcarbamoyl-2-oxo-ethylcarbamoyl)-2-(1H-indol-3-yl)-ethylcarbamoyl]-ethyl}-amide]	0.615 µM
0.266 µM	2.89 µM	> 20 µM	1.28 µM	> 20 µM	C[C@H](NC(=O)OCc1ccccc1)C(=O)N[C@@H](Cc1ccccn1)C(=O)N[C@@H](Cc1ccccc1)C(=O)C(=O)NCc1ccccc1 [Example 50, {(S)-1-[(S)-1-((S)-1-Benzyl-2-benzylcarbamoyl-2-oxo-ethylcarbamoyl)-2-pyridin-2-yl-ethylcarbamoyl]-ethyl}-carbamic acid benzyl ester]	2.74 µM
2.08 µM	2.43 µM	> 20 µM	0.661 µM	8.7 µM	CCCC[C@H](NC(=O)[C@H](CC(C)C)NC(=O)[C@@H](NC(=O)CN1CCOCC1)C(C)(C)C)C(=O)C(=O)NCc1ccccc1 [Example 2, (S)-3-{(S)-2-[(S)-3,3-Dimethyl-2-(2-morpholin-4-yl-acetylamino)-butyrylamino]-4-methyl-pentanoylamino}-2-oxo-heptanoic acid benzylamide]	12.1 µM
0.007 µM	0.765 µM	> 20 µM	0.21 µM	> 20 µM	COc1ccc(C[C@H](NC(=O)[C@H](C)NC(=O)c2cc(C)on2)C(=O)N[C@@H](Cc2ccccc2)C(=O)C(=O)NCc2ccccc2)cc1 [Example 21, 5-Methyl-isoxazole-3-carboxylic acid {(S)-1-[(S)-1-((S)-1-benzyl-2-benzylcarbamoyl-2-oxo-ethylcarbamoyl)-2-(4-methoxy-phenyl)-ethylcarbamoyl]-ethyl}-amide]	3.49 µM
0.007 µM	0.988 µM	> 20 µM	0.417 µM	> 20 µM	COc1ccc(C[C@H](NC(=O)[C@H](C)NC(=O)OCc2ccccc2)C(=O)N[C@@H](Cc2ccccc2)C(=O)C(=O)NCc2ccccc2)cc1 [Example 17, {(S)-1-[(S)-1-((S)-1-Benzyl-2-benzylcarbamoyl-2-oxo-ethylcarbamoyl)-2-(4-methoxy-phenyl)-ethylcarbamoyl]-ethyl}-carbamic acid benzyl ester]	0.939 µM
0.046 µM	1.29 µM	> 20 µM	1.14 µM	14.7 µM	COc1ccc(C[C@H](NC(=O)[C@H](C)NS(=O)(=O)c2ccccc2C)C(=O)N[C@@H](Cc2ccccc2)C(=O)C(=O)NCc2ccccc2)cc1 [Example 40, (S)—N-Benzyl-3-{(S)-3-(4-methoxy-phenyl)-2-[(S)-2-(toluene-2-sulfonylamino)-propionylamino]-propionylamino}-2-oxo-4-phenyl-butyramide]	1.83 µM
